In patent US20190119504A1 (Dow Global Technologies LLC, priority 2016, published 2019):

Columns and labels:
[1] = system: Aspergillus niger DSMZ 1957; test: Fungal efficacy testing of dry paint film, modified ASTM 5590; format: cell-based; conditions: A. niger 1957, three weeks
Protocol: (§1) These paints were then diluted with a biocide free acrylic/silicone based paint and mixed to prepare targeted concentrations of biocide combinations for the testing. The total biocides concentrations obtained were 125, 250, 500, 1000, 2000 and 5000 ppm. After biocides addition or dilution, the paints were mixed 90 seconds with the horse power shaker (AXEL 75M3372/Agitateur SO-10MI) until uniformity was achieved. […] After one day, the paints were applied to Schleicher & Schuell filter paper at 280 μm wet film thickness and dried for 3 days at room temperature avoiding direct exposure to sunlight. […] This sample size allowed for an agar border when the sample disc was placed into the well of the test plate.
ASTM 5590 is a standard accelerated test method for determining resistance of various coatings (including paints) to fungal defacement. To accommodate for high-throughput screening, this method was scaled down from petri plates to 6-well plates. […] A single coupon was placed with a pair of sterile forceps at the center of the agar plug (on top) with the painted surface facing upwards.
(§2) The SI is calculated based on F. C. Kull et.
SI=Qa/QA+Qb/QB • Qa=the concentration of Antimicrobial A in the blend • QA=the concentration of Antimicrobial A as the only biocide • Qb=the concentration of Antimicrobial B in the blend • QB=the concentration of Antimicrobial B as the only antimicrobial
SI value of <1 in the formula indicates a synergism of the blended biocides exists.

Chlorella sp. ATCC 7516 = test: Algal efficacy testing of dry paint film, modified ASTM 5589; format: cell-based
Protocol: as §1
Algal efficacy was tested according to modified ASTM 5589 which is a standard accelerated test method for determining resistance of various coatings (including paints) to algal defacement. To accommodate for high-throughput screening, this method was scaled down from petri plates to 6-well plates. Bold Modified Basal Freshwater Nutrient Solution was used as growth medium for the algal culture and Bold's agar was used for the efficacy testing. A single coupon was placed with a pair of sterile forceps at the center of the agar plug (on top) with the painted surface facing upwards. The algal inoculum was prepared by diluting an exponentially growing culture of Chlorella sp. to 1×10^6 cfu/ml.
Each well that contains a tested coupon was inoculated with 1750 μl of algal suspension (1×10^6 cfu/ml) making sure that the whole surface (paint film as well as the agar surrounding it) was evenly covered. The plates were incubated at room temp (21° C.-25° C.) with cyclic exposure to 14 hours fluorescent light followed by 10 hours darkness, for a period of three weeks.
as §2
SI=Qa/QA+Qb/QB • Qa=the concentration of Antimicrobial A in the blend • QA=the concentration of Antimicrobial A as the only biocide • Qb=the concentration of Antimicrobial B in the blend • QB=the concentration of Antimicrobial B as the only antimicrobial […]

| SMILES | Total conc, ppm (concentration used as minimum inhibitory concentration for SI; pass level 75% inhibition; where pass not reached, concentration tested) ([1]; total active ingredient in liquid paint, dry film) [ppm] | inhibition at 2000 ppm ([1]; Aspergillus niger, DSMZ1957, 504 h, total conc 2000 ppm, area covered, increments of 5%) [%] | inhibition at 5000 ppm (Chlorella sp. ATCC 7516; 504 h, total conc 5000 ppm, three weeks, color intensity vs blank) [%] | Total conc, ppm (concentration used as minimum inhibitory concentration for SI; pass level 75% inhibition) (Chlorella sp. ATCC 7516; total active ingredient in liquid paint, dry film, three weeks) [ppm] | inhibition at 10000 ppm ([1]; Aspergillus niger, DSMZ1957, 504 h, total conc 10000 ppm, area covered, increments of 5%) [%] | inhibition at 1000 ppm (Chlorella sp. ATCC 7516; 504 h) [%] |
| --- | --- | --- | --- | --- | --- | --- |
| Cc1ccc(S(=O)(=O)C(I)I)cc1 [DIMTS, Diiodomethyl p-tolyl sulfone] | 2000 | 95 | 95 | 5000 | – | – |
| O=c1[nH]c2c(c(=O)n1C1CCCCC1)CCC2 [LENACIL, 3-Cyclohexyl-6,7-dihydro-1H-cyclopentapyrimidine-2,4-(3H,5H)-dione] | – | – | – | – | 0 | 90 |
